Laboratory results as given in publication PMC11714206, “Massively Parallel Screening of Toll/Interleukin‐1 Receptor (TIR)‐Derived Peptides Reveals Multiple Toll‐Like Receptors (TLRs)‐Targeting Immunomodulatory Peptides” (Advanced Science, 2024).
Where “and” joins values, the source holds several entries; their conditions need not be identical. Equal values may be shown once. Blank lines part the entries; values can stand above or below the sequence they belong to.

Molecular target: T1, MAL^TIR (Homo sapiens, UniProt P58753)
T1 construct: MAL (residues 79–221); 6xHis; made in house; host or cells: E. coli BL21 (DE3)
Assay: T‐Surf phage library (P8 and P3) selection against MAL^TIR, four rounds, NGS read counts
Assay type: binding
Settings: for P8_MAL Rank (after) / P8_MAL Rank (before): P8 library; for Population: P8_MAL pool: P8 T-Surf phage library, 4th round of selection against MAL TIR, share of NGS reads; for P3_MAL Rank (after) / P3_MAL Rank (before): P3 library
In short: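 Library of 190 946 TIR‐derived peptides on P8 or P3 was panned on immobilized TIR domain coated at 5 µg mL^−1, BSA‐blocked, 1 h binding at RT, PBS/0.5% Tween‐20 washes, HCl elution, TG1 amplification. Fourth‐round pools were PCR‐barcoded, sequenced (100 bp paired‐end, Phred ≥30), and peptides ranked by read counts.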

[1] = P8_MAL: rank by count after grouping
[2] = P8_MAL: rank by count before grouping
[3] = selection against MAL TIR, rank by count after grouping
[4] = selection against MAL TIR, rank by count before grouping
[5] = selection against MAL, rank after grouping
[6] = selection against MAL, rank before grouping
[7] = 4R selection against MAL, rank after grouping
[8] = 4R selection against MAL, rank before grouping
[9] = selection against MAL, rank by count after grouping
[10] = selection against MAL, rank by count before grouping
[11] = P3_MAL: rank by count after grouping
[12] = P3_MAL: rank by count before grouping

T1 sequence (P58753 79-221): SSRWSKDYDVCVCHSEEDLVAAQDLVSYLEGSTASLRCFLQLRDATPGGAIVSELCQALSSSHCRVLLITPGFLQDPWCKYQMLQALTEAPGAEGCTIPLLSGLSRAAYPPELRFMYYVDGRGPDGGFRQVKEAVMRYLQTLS

Sequence: TFLGHLYIALVQTGIH
- P8_MAL Rank (after) [3]: 261
- P8_MAL Rank (before) [4]: 2558

Sequence: TFLGHLYIAMVQAAIH
- P8_MAL Rank (after) [5]: 528
- P8_MAL Rank (before) [6]: 2559

Sequence: TFLGHLYMRWCRRAF
- P8_MAL Rank (after) [7]: 625
- P8_MAL Rank (before) [8]: 2560

Sequence: TFLGHLYNALLQPGIH
- Rank (after) [1]: 181
- Rank (before) [2]: 2616

Sequence: TFLGHLYNALVQAGI
- P8_MAL Rank (after) [5]: 498
- P8_MAL Rank (before) [6]: 2582

Sequence: TFLGHLYNALVQAGIRAFL
- P8_MAL Rank (after) [7]: 588
- P8_MAL Rank (before) [8]: 2579

Sequence: TFLGHLYNALVQTGIP
- Rank (after) [1]: 112
- Rank (before) [2]: 2569

Sequence: TFLGHLYNMLIQAGIH
- Rank (after) [1]: 393
- Rank (before) [2]: 2595

Sequence: TFLGHLYNTLVHAGTH
- Rank (after) [1]: 397
- Rank (before) [2]: 2600

Sequence: TFLGHLYNTLVQPAIH
- P8_MAL Rank (after) [7]: 620
- P8_MAL Rank (before) [8]: 2596

Sequence: TFLGHLYSALVHAGIH
- Rank (after) [1]: 479
- Rank (before) [2]: 2561

Sequence: TFLGNLYNALVKAGIH
- Rank (after) [1]: 135
- Rank (before) [2]: 2614

Sequence: TFLGPQYNALVQAGTH
- P8_MAL Rank (after) [5]: 484
- P8_MAL Rank (before) [6]: 2554

Sequence: TFLGQTYNAQAPAEIP
- P8_MAL Rank (after) [7]: 644
- P8_MAL Rank (before) [8]: 2613

Sequence: TFLRHLYNALVQAGLH
- P8_MAL Rank (after) [3]: 245
- P8_MAL Rank (before) [4]: 2627

Sequence: TLLCHLYNALVQAGIH
- P8_MAL Rank (after) [3]: 239
- P8_MAL Rank (before) [4]: 2637

Sequence: TLLDHLCNELVQAGIH
- P8_MAL Rank (after) [9]: 721
- P8_MAL Rank (before) [10]: 2639

Sequence: TRFCDRRCLTVAGSSA
- Rank (after) [11]: 409
- Rank (before) [12]: 3235

Sequence: VELAQVRKQRDAGEKV
- Rank (after) [11]: 412
- Rank (before) [12]: 1644

Sequence: VEPTQGRKQLGAVENA
- P3_MAL Rank (after) [5]: 573
- P3_MAL Rank (before) [6]: 1683

Sequence: VGWFLHTLCQLILQKG
- P3_MAL Rank (after) [7]: 632
- P3_MAL Rank (before) [8]: 1630

Sequence: VLQKFISHLYDFLARK
- P3_MAL Rank (after) [3]: 262
- P3_MAL Rank (before) [4]: 761

More lines, now with the values ahead:

- Rank (after) [1]: 478
- Rank (before) [2]: 2556
Sequence: TFLGHLSNGLVQAGIH

- P8_MAL Rank (after) [7]: 654
- P8_MAL Rank (before) [8]: 2590
Sequence: TFLGHLYNALLRSDGR

- Rank (after) [1]: 453
- Rank (before) [2]: 2584
Sequence: TFLGHLYNALVQAAF

- Population: 0.00463% and 0.00432% and 0.00402%
Sequence: TFLGHLYNALVQAGIH

- Population: 0.00463%
Sequence: TFLGHLYNALVQAGIP

- P8_MAL Rank (after) [3]: 230
- P8_MAL Rank (before) [4]: 2583
Sequence: TFLGHLYNALVQAGKL

- P8_MAL Rank (after) [7]: 633
- P8_MAL Rank (before) [8]: 2563
Sequence: TFLGHLYNSLVQAGTH

- P8_MAL Rank (after) [7]: 650
- P8_MAL Rank (before) [8]: 2598
Sequence: TFLGHLYNTLVQACIH

- Rank (after) [1]: 391
- Rank (before) [2]: 2537
Sequence: TFLGHLYNTLVQASIF

- P8_MAL Rank (after) [5]: 521
- P8_MAL Rank (before) [6]: 2615
Sequence: TFLGNLYNPLVQAGLH

- Rank (after) [1]: 388
- Rank (before) [2]: 2536
Sequence: TFLGPLLNALVQAGIH

- Rank (after) [1]: 120
- Rank (before) [2]: 2553
Sequence: TFLGPLYNALVQAGIP

- P8_MAL Rank (after) [3]: 253
- P8_MAL Rank (before) [4]: 2545
Sequence: TFLIHQNNARMHANIL

- P8_MAL Rank (after) [7]: 674
- P8_MAL Rank (before) [8]: 2533
Sequence: TFLYTFLINLTHPTNY

- Rank (after) [1]: 180
- Rank (before) [2]: 2633
Sequence: TFPGHLYNALVQAGIL

- Rank (after) [1]: 434
- Rank (before) [2]: 2652
Sequence: TRPYLDWPQEPEMHEA

- P3_MAL Rank (after) [9]: 754
- P3_MAL Rank (before) [10]: 3239
Sequence: TSFREGLLRLLELSKK

- P3_MAL Rank (after) [7]: 633
- P3_MAL Rank (before) [8]: 3244
Sequence: TSHLHHAMRLNKIDTF

- P8_MAL Rank (after) [5]: 490
- P8_MAL Rank (before) [6]: 2649
Sequence: TYLGNLNNALVQAGIH

- P3_MAL Rank (after) [9]: 743
- P3_MAL Rank (before) [10]: 1658
Sequence: VEPTQVRKLRGAVEKV

- P3_MAL Rank (after) [9]: 760
- P3_MAL Rank (before) [10]: 1661
Sequence: VEPTQVRKQRCGGKC

- P3_MAL Rank (after) [9]: 716
- P3_MAL Rank (before) [10]: 1671
Sequence: VEPTQVRKQSGAVEM

- P3_MAL Rank (after) [9]: 676
- P3_MAL Rank (before) [10]: 1673
Sequence: VEPTQVRKQSGAVENATG

- P3_MAL Rank (after) [3]: 244
- P3_MAL Rank (before) [4]: 1663
Sequence: VEPTQVRKQSGSVKNA

- P3_MAL Rank (after) [9]: 753
- P3_MAL Rank (before) [10]: 1651
Sequence: VEPTQVRTQSGAAENA

- P3_MAL Rank (after) [7]: 627
- P3_MAL Rank (before) [8]: 1687
Sequence: VEQTQVRKPSGAVENA

- P8_MAL Rank (after) [7]: 627
- P8_MAL Rank (before) [8]: 1563
Sequence: VFFWAQLKKVLRNPTR

- Population: 0.00309%
Sequence: VFLYTFLINLTHPTNF

- Rank (after) [11]: 168
- Rank (before) [12]: 528
Sequence: VGWFLHTLSQHILKREK

- Rank (after) [11]: 184
- Rank (before) [12]: 1689
Sequence: VLHKFIGYLRDALQHR
